The values that follow come from PubChem BioAssay (NCI).

Where “and” joins values, the source holds several entries; their conditions need not be identical. Identical values can stand only once.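 Compound exposure: 48 hours, 5 concentrations, 96-well plates. GI50: concentration for 50% inhibition of growth. TGI is the concentration that stops growth completely.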

Holding throughout (assay): NCI tumour cell line growth inhibition, 48 h
The subject of assay [1] is OVCAR-8 ovarian.
The test system of assay [2] is NCI/ADR-RES ovarian.
The test system of assay [3] is HOP-92 NSCLC.
For assay [4], the system named is UACC-62 melanoma.
Assay [5] deals with SNB-75 CNS.
The subject of assay [6] is K-562 leukemia.
Assay [7] deals with UACC-257 melanoma.
For assay [8], the system named is SW-620 colon.
Assay [9] has as its system M14 melanoma.
Assay [10] concerns T-47D breast.

Turning to `COc1cc(F)c(F)c(F)c1C(=O)c1cnc(NC2CCN(S(C)(=O)=O)CC2)nc1N`, the GI50 in [1] was 2.28 µM; in [2], 5.16 µM; in assay [3] it was 0.41 µM; in assay [4] it was 1.49 µM; in assay [5], 3.65 µM; in assay [6], 4.78 µM. In addition, the GI50 was 3 µM in assay [7], 0.409 µM in [8], 3.09 µM in assay [9] and 2.64 µM in assay [10]. In addition, the TGI in assay [1] was > 25 µM; in assay [2], > 25 µM; in [3] it was 7.11 µM; in assay [4] it was 7.98 µM; in assay [5] it was 8.75 µM; in [6], > 25 µM. Besides, the TGI in [7] was 14 µM; in assay [8], > 25 µM; in assay [9], 10.2 µM; in assay [10] it was > 24.1 µM.

Turning to `O=C1Nc2ccc(I)cc2/C1=C/c1cc(Br)c(O)c(Br)c1`, the GI50 in assay [1] was > 25 µM and 23.8 µM; in [2], > 21.8 µM and 28.2 µM; in [3] it was 15.6 µM; in assay [4], 11.5 µM and 8.43 µM; in [5], > 25 µM and 22.2 µM; in [6] it was > 51.9 µM. Further, the GI50 in assay [7] is > 20.7 µM and 16.5 µM; in assay [8], 24.8 µM and 22 µM; in assay [9], 10.8 µM and 5.03 µM; in assay [10] it was > 18.5 µM and 15.4 µM. In addition, the TGI in assay [1] was > 96.5 µM; in [2] it was > 100 µM; in assay [3], 54.7 µM; in assay [4] it was > 25 µM and 29.6 µM; in assay [5], > 90.3 µM; in assay [6], > 100 µM. Further, the TGI was > 25 µM and 69.2 µM in [7]; > 25 µM and 51.1 µM in assay [8]; > 25 µM and 72.1 µM in assay [9]; > 82.8 µM in [10].

For `COc1cnc2c(c1)C(=O)c1c-2n(CCCN2CCNCC2)c(=O)c2cc(F)ccc12`, the GI50 in [1] is 0.126 µM; in assay [2] it was 0.865 µM; in [3] it was 0.139 µM; in assay [4], 1.26 µM; in assay [5], 0.368 µM; in assay [6] it was 0.148 µM. Besides, the GI50 in [7] was 1.29 µM; in [8], 0.11 µM; in assay [9], 0.366 µM; in assay [10] it was 0.266 µM. For the same compound, the TGI in assay [1] was 1.25 µM; in assay [2], 4.43 µM; in assay [3], 2.95 µM; in assay [4], 3.02 µM; in assay [5], 2.87 µM; in assay [6], 1.44 µM. The TGI in assay [7] worked out at 2.69 µM; in assay [8], 1.46 µM; in assay [9], 1.88 µM; in [10] it was 13.2 µM.

In the case of `COc1cccc(-c2cc(-c3ccc(Nc4nc(Nc5ccc(Cl)cc5)nc(Nc5ccc(Cl)cc5)n4)cc3)nc(N)c2C#N)c1`, the GI50 in assay [1] was 3.51 µM; in [2], 14.7 µM; in [3], 1.1 µM; in assay [4] it was 14.6 µM; in [5], 9.75 µM; in assay [6], 1.52 µM. The GI50 is 2.03 µM in assay [7], 2.41 µM in assay [8], 2.5 µM in assay [9] and 1.34 µM in [10]. In addition, the TGI is > 100 µM in assay [1]; > 100 µM in [2]; 3.41 µM in [3]; 37.8 µM in [4]; 24.6 µM in [5]; 5.53 µM in assay [6]. Besides, the TGI in [7] came out at 4.8 µM; in assay [8], 5.64 µM; in assay [9], 7.12 µM; in assay [10], 3.67 µM.

In the case of `CC(C)CC(=O)O[C@H]1C(=O)O[C@@H]2C[C@H]3[C@H](C)C(=O)C(O[C@@H]4O[C@H](CO)[C@@H](O)[C@H](O)[C@H]4O)=C[C@]3(C)[C@H]3[C@@H](O)[C@H](O)[C@]4(C(=O)O)OC[C@]32[C@@H]14`, the GI50 in assay [1] is > 100 µM; in assay [2], > 100 µM; in assay [3], 37 µM; in [6], 24 µM; in assay [7], > 100 µM; in [8] it was > 100 µM. For the same compound, the TGI in [1], in assay [2], in [3], in assay [4], in [5] and in assay [6] was > 100 µM throughout. Besides, the TGI in assay [7], in assay [8], in [9] and in assay [10] was > 100 µM each time.

`C=C(CN1CCc2ccccc2C1)c1ccc(C(=O)Nc2cccc(N)c2)cc1`: the GI50 is 20.6 µM in [1]; 21.7 µM in assay [2]; 63.9 µM in [3]; 17.1 µM in [4]; 15.6 µM in assay [5]; 7.53 µM in [6]. In addition, the GI50 is 14.8 µM in assay [7], 23 µM in [8], 15.4 µM in assay [9] and 27.3 µM in assay [10]. Further, the TGI in assay [1] was 44.7 µM; in assay [2], 76.8 µM; in [3], > 100 µM; in assay [4], 33.3 µM; in assay [5], 43 µM; in assay [6], 30 µM. The TGI is 29.7 µM in assay [7], 52.1 µM in assay [8], 29.1 µM in assay [9] and > 100 µM in assay [10].

Take `CCCN1CCCC(c2ccc(Nc3nc(Nc4cc(F)ccc4C(N)=O)c4cc[nH]c4n3)c(OC)c2)C1` (configuration not stated): the GI50 in assay [1] was 2.47 µM; in assay [2], 3.57 µM; in assay [3] it was 0.013 µM; in [4], 3.11 µM; in [5], 3.14 µM; in assay [6], 0.825 µM. The GI50 in assay [7] was 0.188 µM; in assay [8], 0.106 µM; in assay [9] it was 1.02 µM; in assay [10], 3.55 µM. Also, the TGI in assay [1] stood at 5.92 µM; in [2] it was 9.92 µM; in assay [3], 1.39 µM; in [4], 6.31 µM; in [5], 6.43 µM; in [6], 5.59 µM. The TGI in assay [7] turned out to be 4.54 µM; in [8], 3.66 µM; in assay [9] it was 4.8 µM; in assay [10], 7.62 µM.

Take `O=C(/C=C/c1ccccc1)c1ccccn1`: the TGI in [1] is 34.6 µM and > 100 µM; in [2], 54.5 µM and > 100 µM; in assay [3], 53 µM; in [4] it was 36.8 µM and 41.4 µM; in assay [5], 37.5 µM and 92.7 µM; in [6], 36.6 µM and > 100 µM. Further, the TGI in assay [7] was 26.9 µM and 32.3 µM; in assay [8], 58.9 µM and > 100 µM; in assay [9], 29.9 µM; in [10], 31.2 µM and 62.7 µM. In assay [6], the GI50 was 4.36 µM and 21.6 µM.
